Data as given in patent publication US11066414B2, “Cot modulators and methods of use thereof” (Gilead Sciences, Inc., priority 2015, dated 2021).

tested on: TNFα; experiment: Cot Monocyte TNFα Cell Based Assay; settings: Homo sapiens, Monocyte, read-out: EC50 TNF, LPS-stimulated human monocytes, TNFα

EC50 | SMILES
0.302 µM | N#Cc1cnc2c(Cl)cc(N[C@@H](c3cccnc3)c3cn(C4CCN(C5COC5)CC4)nn3)cc2c1Nc1ccc(F)c(Cl)c1 [Example 314, (S)-8-chloro-4-((3-chloro-4-fluorophenyl)amino)-6-(((1-(1-(oxetan-3-yl)piperidin-4-yl)-1H-1,2,3-triazol-4-yl)(pyridin-3-yl)methyl)amino)quinoline-3-carbonitrile]
1.01 µM | N#Cc1csc([C@H](Nc2cc(Cl)c3ncc(C#N)c(Nc4ccc(F)c(Cl)c4)c3c2)c2cn(C3COC3)nn2)c1 [Example 339, (R)-8-chloro-4-((3-chloro-4-fluorophenyl)amino)-6-(((4-cyanothiophen-2-yl)(1-(oxetan-3-yl)-1H-1,2,3-triazol-4-yl)methyl)amino)-quinoline-3-carbonitrile]
0.444 µM | CC(C)(C)N1CCC(n2cc([C@@H](Nc3cc(Cl)c4ncc(C#N)c(Nc5ccc(F)c(Cl)c5)c4c3)c3cocn3)nn2)CC1 [Example 348, (S)-6-(((1-(1-(tert-butyl)piperidin-4-yl)-1H-1,2,3-triazol-4-yl)(oxazol-4-yl)methyl)amino)-8-chloro-4-((3-chloro-4-fluorophenyl)amino)-quinoline-3-carbonitrile]
0.983 µM | N#Cc1cnc2c(Cl)cc(N[C@@H](c3cscn3)c3cn(C4CCNCC4)nn3)cc2c1Nc1ccc(F)c(Cl)c1 [Example 354, (S)-8-chloro-4-((3-chloro-4-fluorophenyl)amino)-6-(((1-(piperidin-4-yl)-1H-1,2,3-triazol-4-yl)(thiazol-4-yl)methyl)amino)-quinoline-3-carbonitrile]
0.746 µM | CC(C)(C)n1cc([C@@H](Nc2cc(Cl)c3ncc(C#N)c(Nc4ccc(F)c(Cl)c4)c3c2)c2cscn2)nn1 [Example 361, (S)-6-(((1-(tert-butyl)-1H-1,2,3-triazol-4-yl)(thiazol-4-yl)methyl)-amino)-8-chloro-4-((3-chloro-4-fluorophenyl)amino)quinoline-3-carbonitrile]
0.338 µM | CCN1CCC(n2cc(C(Nc3cc(Cl)c4ncc(C#N)c(Nc5ccc(F)c(Cl)c5)c4c3)c3ncccn3)nn2)CC1 (stereo not shown) [Example 367, 8-chloro-4-((3-chloro-4-fluorophenyl)amino)-6-(((1-(1-ethylpiperidin-4-yl)-1H-1,2,3-triazol-4-yl)(pyrimidin-2-yl)methyl)-amino)quinoline-3-carbonitrile]
0.609 µM | CCN1CCC(n2cc([C@@H](Nc3cc(Cl)c4ncc(C#N)c(Nc5ccc(F)c(Cl)c5)c4c3)c3cccs3)nn2)CC1 [Example 380, (R)-8-chloro-4-((3-chloro-4-fluoro-phenyl)amino)-6-(((1-(1-ethylpiperidin-4-yl)-1H-1,2,3-triazol-4-yl)(thiophen-2-yl)methyl)amino)quinoline-3-carbonitrile]
0.768 µM | CCN1CCC(n2cc([C@@H](Nc3cc(Cl)c4ncc(C#N)c(Nc5ccc(F)c(Cl)c5)c4c3)c3ccc(Cl)s3)nn2)CC1 [Example 382, (R)-8-chloro-4-((3-chloro-4-fluoro-phenyl)amino)-6-(((5-chlorothiophen-2-yl)(1-(1-ethylpiperidin-4-yl)-1H-1,2,3-triazol-4-yl)methyl)amino)quinoline-3-carbonitrile]
0.021 µM | Cc1nc(F)ccc1[C@H](Nc1cc(Cl)c2ncc(C#N)c(N[C@H](CCC#N)c3ccccc3)c2c1)c1cn(C2CC2)nn1 [Example 431, 8-chloro-4-(((R)-3-cyano-1-phenyl-propyl)amino)-6-(((S)-(1-cyclopropyl-1H-1,2,3-triazol-4-yl)(6-fluoro-2-methylpyridin-3-yl)methyl)amino)-quinoline-3-carbonitrile]
0.299 µM | CC(C)(C)CNc1c(C#N)cnc2c(Br)cc(N[C@H](c3cn(C4(C(F)(F)F)CC4)nn3)c3cccc4ncsc34)cc12 [Example 439, (S)-6-((benzo[d]thiazol-7-yl(1-(1-(trifluoromethyl)cyclopropyl)-1H-1,2,3-triazol-4-yl)methyl)amino)-8-bromo-4-(neopentylamino)quinoline-3-carbonitrile]
0.026 µM | CC(C)(C)CNc1c(C#N)cnc2c(C#N)cc(N[C@H](c3cn(C4(CF)CC4)nn3)c3cccc4ncsc34)cc12 [Example 441, (S)-6-((benzo[d]thiazol-7-yl(1-(1-(fluoromethyl)cyclopropyl)-1H-1,2,3-triazol-4-yl)methyl)amino)-4-(neopentylamino)quinoline-3,8-dicarbonitrile]
0.029 µM | Cc1nc(F)ccc1[C@H](Nc1cc(F)c2ncc(C#N)c(NCC(C)(C)C)c2c1)c1cn(C2(C#N)CC2)nn1 [Example 485, (S)-6-(((1-(1-cyanocyclopropyl)-1H-1,2,3-triazol-4-yl)(6-fluoro-2-methylpyridin-3-yl)methyl)amino)-8-fluoro-4-(neopentyl-amino)quinoline-3-carbonitrile]
0.158 µM | Cn1ccc2c([C@H](Nc3cc(Cl)c4ncc(C#N)c(NCC(C)(C)C)c4c3)c3cn(C4CC4)nn3)ccnc21 [Example 519, (S)-8-chloro-6-(((1-cyclopropyl-1H-1,2,3-triazol-4-yl)(1-methyl-1H-pyrrolo[2,3-b]pyridin-4-yl)methyl)amino)-4-(neopentylamino)quinoline-3-carbonitrile]
0.073 µM | Cn1ncc2cccc([C@H](Nc3cc(C#N)c4ncc(C#N)c(NCC(C)(C)C)c4c3)c3cn(C4(C(F)(F)F)CC4)nn3)c21 [Example 526, (S)-6-(((1-methyl-1H-indazol-7-yl)(1-(1-(trifluoromethyl)cyclopropyl)-1H-1,2,3-triazol-4-yl)methyl)amino)-4-(neopentylamino)quinoline-3,8-dicarbonitrile]
0.422 µM | Cn1ncc2c([C@H](Nc3cc(Cl)c4ncc(C#N)c(NCC(C)(C)C)c4c3)c3cn(C4(C(F)(F)F)CC4)nn3)cccc21 [Example 543, (S)-8-chloro-6-(((1-methyl-1H-indazol-4-yl)(1-(1-(trifluoromethyl)cyclopropyl)-1H-1,2,3-triazol-4-yl)methyl)amino)-4-(neopentylamino)quinoline-3-carbonitrile]
0.184 µM | Cc1nc(F)ccc1[C@H](Nc1cc(Cl)c2ncc(C#N)c(N[C@H](C)C(C)(C)C)c2c1)c1cn(C2(C(F)(F)F)CC2)nn1 [Example 582, 8-chloro-4-(((R)-3,3-dimethylbutan-2-yl)amino)-6-(((S)-(6-fluoro-2-methylpyridin-3-yl)(1-(1-(trifluoromethyl)cyclopropyl)-1H-1,2,3-triazol-4-yl)methyl)amino)quinoline-3-carbonitrile]
0.838 µM | Cc1nc(F)ccc1[C@H](Nc1cc(C#N)c2ncc(C#N)c(NC3CCCCC3)c2c1)c1cn(C2(C(F)(F)F)CC2)nn1 [Example 585, (S)-4-(cyclohexylamino)-6-(((6-fluoro-2-methylpyridin-3-yl)(1-(1-(trifluoromethyl)-cyclopropyl)-1H-1,2,3-triazol-4-yl)methyl)amino)quinoline-3,8-dicarbonitrile]
0.034 µM | Cc1nc(F)ccc1[C@H](Nc1cc(C#N)c2ncc(C#N)c(NCC(C)(C)C)c2c1)c1cn(C(C)(C)C)nn1 [Example 589, (S)-6-(((1-(tert-butyl)-1H-1,2,3-triazol-4-yl)(6-fluoro-2-methylpyridin-3-yl)methyl)amino)-4-(neopentylamino)quinoline-3,8-dicarbonitrile]
0.316 µM | CC(C)(C)CNc1c(C#N)cnc2c(Cl)cc(N[C@H](c3cn(C4(C(F)(F)F)CC4)nn3)c3cccn4cncc34)cc12 [Example 599, (S)-8-chloro-6-((imidazo[1,5-a]pyridin-8-yl(1-(1-(trifluoromethyl)cyclopropyl)-1H-1,2,3-triazol-4-yl)methyl)amino)-4-(neopentylamino)quinoline-3-carbonitrile]
0.144 µM | Cc1nc(F)ccc1[C@H](Nc1cc(C#N)c2ncc(C#N)c(N[C@@H](c3ccccc3)C3CC3)c2c1)c1cn(C2(C(F)(F)F)CC2)nn1 [Example 613, 4-(((R)-cyclopropyl(phenyl)methyl)amino)-6-(((S)-(6-fluoro-2-methylpyridin-3-yl)(1-(1-(trifluoromethyl)cyclopropyl)-1H-1,2,3-triazol-4-yl)methyl)amino)quinoline-3,8-dicarbonitrile]
0.588 µM | Cc1nc(F)ccc1[C@H](Nc1cc(C#N)c2ncc(C#N)c(NCC(C)(C)C#N)c2c1)c1cn(C2(C(F)(F)F)CC2)nn1 [Example 615, (S)-4-((2-cyano-2-methylpropyl)amino)-6-(((6-fluoro-2-methylpyridin-3-yl)(1-(1-(trifluoromethyl)cyclopropyl)-1H-1,2,3-triazol-4-yl)methyl)amino)quinoline-3,8-dicarbonitrile]
0.104 µM | CC(C)(C)CNc1c(C#N)cnc2c(Cl)cc(N[C@H](c3cn(C4(C(F)(F)F)CC4)nn3)c3ccc(F)c4cnccc34)cc12 [Example 616, (S)-8-chloro-6-(((8-fluoroisoquinolin-5-yl)(1-(1-(trifluoromethyl)cyclopropyl)-1H-1,2,3-triazol-4-yl)methyl)amino)-4-(neopentylamino)quinoline-3-carbonitrile]
1 µM | Cc1ncoc1[C@H](Nc1cc(Cl)c2ncc(C#N)c(NCC(C)(C)C)c2c1)c1cn(C2(C(F)F)CC2)nn1 [Example 630, (R)-8-chloro-6-(((1-(1-(difluoromethyl)cyclopropyl)-1H-1,2,3-triazol-4-yl)(4-methyloxazol-5-yl)methyl)amino)-4-(neopentylamino)quinoline-3-carbonitrile]

same assay, conditions: read-out: EC50 TNF; LPS-stimulated human monocytes, TNFα

SMILES | EC50
CC(C)(C)N1CCC(n2cc([C@@H](Nc3cc(Cl)c4ncc(C#N)c(Nc5ccc(F)c(Cl)c5)c4c3)c3cccnc3)nn2)CC1 [Example 369, (S)-6-(((1-(1-(tert-butyl)piperidin-4-yl)-1H-1,2,3-triazol-4-yl)(pyridin-3-yl)methyl)amino)-8-chloro-4-((3-chloro-4-fluorophenyl)amino)quin-oline-3-carbonitrile] | 0.089 µM
CC(C)(C)CNc1c(C#N)cnc2c(C#N)cc(N[C@H](c3cn(C4(C(F)F)CC4)nn3)c3cccc4cnccc34)cc12 [Example 551] | 0.027 µM
